Data on 3 compounds can be found in patent publication US20160145257A1, “SUBSTITUTED XANTHINES AND METHODS OF USE THEREOF” (Hydra Biosciences, Inc., priority 2013, published 2016).

Bounds are passed on as bounds.

The target of one assay is T1, hTRPC5 (Homo sapiens, UniProt Q9UL62).
T1 construct: expressed in transfected cells; host or cells: HEK293 TREx cells with inducible TRPC5 expression
T1 sequence (Q9UL62 1-973): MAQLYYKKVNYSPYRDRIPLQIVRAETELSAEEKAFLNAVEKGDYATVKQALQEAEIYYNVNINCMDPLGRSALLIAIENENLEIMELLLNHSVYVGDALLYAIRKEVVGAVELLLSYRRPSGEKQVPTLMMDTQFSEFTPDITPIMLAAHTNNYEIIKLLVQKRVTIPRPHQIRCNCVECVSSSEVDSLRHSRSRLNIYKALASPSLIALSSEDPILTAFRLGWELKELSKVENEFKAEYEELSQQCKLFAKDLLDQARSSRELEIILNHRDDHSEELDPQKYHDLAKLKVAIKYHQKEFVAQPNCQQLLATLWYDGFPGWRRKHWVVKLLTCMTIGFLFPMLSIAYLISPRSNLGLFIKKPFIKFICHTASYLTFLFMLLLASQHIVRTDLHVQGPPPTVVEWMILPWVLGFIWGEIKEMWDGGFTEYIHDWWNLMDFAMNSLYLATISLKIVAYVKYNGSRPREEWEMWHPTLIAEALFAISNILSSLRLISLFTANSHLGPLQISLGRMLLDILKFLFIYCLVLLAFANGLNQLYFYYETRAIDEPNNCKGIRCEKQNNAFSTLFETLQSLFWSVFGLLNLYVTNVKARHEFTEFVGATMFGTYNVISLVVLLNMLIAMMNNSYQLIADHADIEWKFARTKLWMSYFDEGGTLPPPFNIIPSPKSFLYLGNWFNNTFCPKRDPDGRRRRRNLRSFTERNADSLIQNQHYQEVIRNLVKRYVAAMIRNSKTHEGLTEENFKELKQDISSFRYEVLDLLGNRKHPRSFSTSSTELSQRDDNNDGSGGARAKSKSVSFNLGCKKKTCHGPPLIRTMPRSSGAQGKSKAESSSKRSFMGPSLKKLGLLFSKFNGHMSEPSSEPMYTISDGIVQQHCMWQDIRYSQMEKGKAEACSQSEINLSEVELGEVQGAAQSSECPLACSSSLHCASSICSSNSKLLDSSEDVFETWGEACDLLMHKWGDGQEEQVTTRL
Put plainly: Whole-cell patch clamp, block of LaCl3-activated TRPC5 inward current. It counts as cell-based. Conditions: TRPC5-expressing HEK293 TREx cells, 80 μM LaCl3, inward current, IC50 estimated from 5 μM and 500 nM, read-out: hTRPC5 Patch La3+ Inwd (nM) (All Batches). In outline: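 Whole-cell recordings in induced TRPC5-expressing HEK293 TREx cells, holding −40 mV, 400 ms ramps −120 to +100 mV every 5 s; current activated by 80 μM external LaCl3 and 1,400 nM pipette free Ca2+ (pH 7.2 internal, 7.4 external). Inward block at −80 mV, with LaCl3 present; IC50 estimated from testing at 5 μM and 500 nM.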

The next assay deals with T2, hTRPC4 (Homo sapiens, UniProt Q9UBN4).
T2 sequence (Q9UBN4 1-977): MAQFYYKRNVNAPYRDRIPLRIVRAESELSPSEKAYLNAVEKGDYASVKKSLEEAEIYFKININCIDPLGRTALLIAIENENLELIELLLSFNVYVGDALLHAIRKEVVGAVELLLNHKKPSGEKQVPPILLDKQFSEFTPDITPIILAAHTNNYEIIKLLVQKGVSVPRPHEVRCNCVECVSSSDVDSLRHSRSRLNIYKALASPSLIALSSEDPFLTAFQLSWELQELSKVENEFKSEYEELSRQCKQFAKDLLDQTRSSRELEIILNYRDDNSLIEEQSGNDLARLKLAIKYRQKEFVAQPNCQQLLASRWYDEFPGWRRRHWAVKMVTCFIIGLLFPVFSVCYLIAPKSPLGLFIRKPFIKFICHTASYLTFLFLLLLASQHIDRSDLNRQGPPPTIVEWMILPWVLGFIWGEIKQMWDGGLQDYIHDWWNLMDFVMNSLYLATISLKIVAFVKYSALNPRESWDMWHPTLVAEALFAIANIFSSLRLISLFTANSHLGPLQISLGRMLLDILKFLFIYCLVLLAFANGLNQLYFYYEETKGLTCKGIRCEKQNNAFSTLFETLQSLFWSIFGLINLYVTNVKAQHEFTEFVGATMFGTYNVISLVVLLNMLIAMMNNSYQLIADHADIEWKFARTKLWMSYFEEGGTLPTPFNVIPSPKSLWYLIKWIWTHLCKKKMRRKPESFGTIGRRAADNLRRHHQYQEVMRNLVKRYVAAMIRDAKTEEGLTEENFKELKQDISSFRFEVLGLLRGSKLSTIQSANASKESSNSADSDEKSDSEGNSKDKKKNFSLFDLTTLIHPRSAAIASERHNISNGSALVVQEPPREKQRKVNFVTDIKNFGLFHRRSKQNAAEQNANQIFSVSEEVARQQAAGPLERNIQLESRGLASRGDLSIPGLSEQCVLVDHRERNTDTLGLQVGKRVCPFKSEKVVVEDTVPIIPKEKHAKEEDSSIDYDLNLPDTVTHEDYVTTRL
Kind of assay: Whole-cell patch clamp, block of TRPC4 inward current. The class given is cell-based. To be noted: read-out: hTRPC4 Patch Inwd (nM) (All Batches).

Regarding `Cn1c(=O)c2c(nc(Oc3cccc(OC(F)(F)F)c3)n2Cc2ccc(Cl)cc2)n(C)c1=O` [Compound 142, 7-(4-chlorobenzyl)-1,3-dimethyl-8-(3-(trifluoromethoxy)phenoxy)-1H-purine-2,6(3H,7H)-dione], the IC50 at hTRPC5 and at hTRPC4 was less than 100 nM throughout.
Regarding `Cn1c(=O)c2c(nc(OCC3CCCC3)n2Cc2ccc(Cl)cc2)n(C)c1=O` [Compound 216, 7-(4-Chlorobenzyl)-8-(cyclopentylmethoxy)-1,3-dimethyl-1H-purine-2,6(3H,7H)-dione], the IC50 on hTRPC5 was 100 to 500 nM.
The same measure, in the same setting: with `Cn1c(=O)c2c(nc(OCCCCCO)n2Cc2ccc(Cl)cc2)n(C)c1=O` [Compound 217, 7-(4-Chlorobenzyl)-8-((5-hydroxypentyl)oxy)-1,3-dimethyl-1H-purine-2,6(3H,7H)-dione] the figure was 2000 to 10000 nM.
